{
  "source": "ChEMBL document CHEMBL4619763",
  "about": "(J Nat Prod, 2020)",
  "assay_type_in_all_cases": "functional",
  "key": {"Rattus norvegicus [1]": {"system": "Rattus norvegicus", "assay": "Diuretic activity in normotensive Wistar rat assessed as urinary sodium excretion at 1 mg/kg, po administered via gavage after 8 hrs (reference value: 61.82 to 80.81 mmol/L)"}, "Rattus norvegicus [2]": {"system": "Rattus norvegicus", "assay": "Diuretic activity in normotensive Wistar rat assessed as urinary calcium excretion at 0.01 mg/kg, […] administered via gavage after 8 hrs (reference value: 5.28 +/- 0.09 mg/dl)"}, "Rattus norvegicus [3]": {"system": "Rattus norvegicus", "assay": "Diuretic activity in normotensive Wistar rat assessed as urine conductivity at 0.1 mg/kg, po administered via gavage after 8 hrs in presence of indomethacin (reference value: 19.54 +/- 0.98 mS/cm)"}, "Rattus norvegicus [4]": {"system": "Rattus norvegicus", "assay": "Diuretic activity in normotensive Wistar rat assessed as urine pH at 0.01 mg/kg, po administered via gavage after 8 hrs (reference value: 6.14 to 6.21)"}, "Rattus norvegicus [5]": {"system": "Rattus norvegicus", "assay": "Diuretic activity in normotensive Wistar rat assessed as urinary sodium excretion at 0.1 mg/kg, po administered via gavage after 8 hrs in presence of L-NAME (reference value: 61.82 to 80.81 mmol/L)"}, "Rattus norvegicus [6]": {"system": "Rattus norvegicus", "assay": "Diuretic activity in normotensive Wistar rat assessed as urine conductivity at 0.1 mg/kg, po administered via gavage after 8 hrs in presence of hydrochlorothiazide (reference value: 19.54 +/- 0.98 mS/cm)"}, "Rattus norvegicus [7]": {"system": "Rattus norvegicus", "assay": "Diuretic activity in normotensive Wistar rat assessed as urine pH at 1 mg/kg, ip after 8 hrs (reference value: 6.05 +/- 0.22)"}, "Rattus norvegicus [8]": {"system": "Rattus norvegicus", "assay": "Diuretic activity in normotensive Wistar rat assessed as urine pH at 0.1 mg/kg, po administered via gavage after 8 hrs in presence of L-NAME (reference value: 6.14 to 6.21)"}},
  "data": [
    {"molecule": "C[C@@H]1O[C@@H](Oc2c(-c3ccc(O)cc3)oc3cc(O)cc(O)c3c2=O)[C@H](O)[C@H](O)[C@H]1O", "note": "[AFZELIN]", "values": [
      {"measurement": "Activity", "setting": "Rattus norvegicus [1]", "value": 74.67, "unit": "mmol/L"},
      {"measurement": "Activity", "setting": "Rattus norvegicus [2]", "value": 5.6, "unit": "mg/dL"},
      {"measurement": "Activity", "setting": "Rattus norvegicus [3]", "value": 19.34, "unit": "mS/cm"},
      {"measurement": "pH", "setting": "Rattus norvegicus [4]", "value": 5.73},
      {"measurement": "Activity", "setting": "Rattus norvegicus [5]", "value": 75.14, "unit": "mmol/L"},
      {"measurement": "Activity", "setting": "Rattus norvegicus [6]", "value": 19.83, "unit": "mS/cm"},
      {"measurement": "pH", "setting": "Rattus norvegicus [7]", "value": 5.91},
      {"measurement": "pH", "setting": "Rattus norvegicus [8]", "value": 6.43}
    ]}
  ]
}
